Measurements taken from the NIST ThermoML archive (doi:10.1016/j.jct.2004.06.002).
± gives the expanded uncertainty stated by the source.

Assays:
[1] = Crystal
[2] = molar heat capacity at constant pressure; conditions: 101.33 kPa
[3] = Molar enthalpy of transition or fusion; conditions: Crystal

CCCCCCCCCCCC(=O)O.Cc1cc(C)nc(Nc2ccccc2)n1 [4,6-dimethyl-N-phenylpyrimidin-2-amine dodecanoate]
Conditions	Molar enthalpy of transition or fusion [kcal/mol]	Triple point temperature [K]
[1]	–	321.52 ± 0.12
[3]	16.07 ± 0.0263	–

[2]
Conditions	molar heat capacity at constant pressure [J/K/mol]
78.4 K, Crystal	214.56 ± 2.3
80.59 K, Crystal	219.02 ± 2.4
82.77 K, Crystal	224.04 ± 2.4
84.91 K, Crystal	229.03 ± 2.5
87.02 K, Crystal	231.07 ± 2.5
89.13 K, Crystal	235.38 ± 2.6
91.21 K, Crystal	238.58 ± 2.3
93.27 K, Crystal	241.25 ± 2.3
95.35 K, Crystal	244.45 ± 2.4
97.44 K, Crystal	249.07 ± 2.4
99.52 K, Crystal	255.64 ± 2.4
101.56 K, Crystal	258.48 ± 2.5
103.55 K, Crystal	262.85 ± 2.5
105.48 K, Crystal	266.32 ± 2.5
107.37 K, Crystal	268.87 ± 2.6
109.23 K, Crystal	272.45 ± 2.6
111.05 K, Crystal	277.04 ± 2.6
112.84 K, Crystal	280.4 ± 2.6
114.62 K, Crystal	283.66 ± 2.7
116.37 K, Crystal	286.19 ± 2.7
118.1 K, Crystal	289.83 ± 2.7
119.81 K, Crystal	291.78 ± 2.7
121.5 K, Crystal	295.26 ± 2.8
123.18 K, Crystal	299.07 ± 2.8
124.85 K, Crystal	302.36 ± 2.8
126.5 K, Crystal	305.27 ± 2.8
128.13 K, Crystal	309.31 ± 2.9
129.75 K, Crystal	313.47 ± 2.9
131.36 K, Crystal	316.7 ± 2.9
133.51 K, Crystal	320.85 ± 3
136.04 K, Crystal	325.43 ± 3
138.47 K, Crystal	328.35 ± 3
140.85 K, Crystal	332.7 ± 3.1
143.2 K, Crystal	334.95 ± 3.1
145.52 K, Crystal	336.56 ± 3.1
147.82 K, Crystal	338.15 ± 3.1
150.09 K, Crystal	340.57 ± 3.1
152.34 K, Crystal	342.79 ± 3.1
154.57 K, Crystal	344.26 ± 3.2
156.78 K, Crystal	346.53 ± 3.2
158.98 K, Crystal	347.92 ± 3.2
161.16 K, Crystal	351.38 ± 3.2
163.31 K, Crystal	355.11 ± 3.2
165.46 K, Crystal	356.7 ± 3.3
167.59 K, Crystal	360.16 ± 3.3
169.71 K, Crystal	363.66 ± 3.3
171.81 K, Crystal	365.89 ± 3.3
173.91 K, Crystal	368.25 ± 3.3
175.99 K, Crystal	370.24 ± 3.4
178.06 K, Crystal	374.92 ± 3.4
180.1 K, Crystal	378.77 ± 3.4
182.13 K, Crystal	381.27 ± 3.5
184.16 K, Crystal	384.86 ± 3.5
186.15 K, Crystal	387.43 ± 3.5
188.14 K, Crystal	391.88 ± 3.5
190.11 K, Crystal	393.71 ± 3.6
192.06 K, Crystal	396.41 ± 3.6
194.01 K, Crystal	400.38 ± 3.6
195.94 K, Crystal	403.84 ± 3.6
197.86 K, Crystal	406.78 ± 3.7
199.77 K, Crystal	410.78 ± 3.7
201.68 K, Crystal	414.73 ± 3.7
203.58 K, Crystal	416.01 ± 3.7
205.49 K, Crystal	418.67 ± 3.7
207.39 K, Crystal	423.8 ± 3.8
209.27 K, Crystal	427.28 ± 3.8
213.63 K, Crystal	430.93 ± 3.8
215.48 K, Crystal	433.69 ± 3.9
217.33 K, Crystal	437.16 ± 3.9
219.16 K, Crystal	440.33 ± 3.9
220.99 K, Crystal	444.57 ± 4
222.81 K, Crystal	447.12 ± 4
224.61 K, Crystal	450.71 ± 4
226.4 K, Crystal	454.16 ± 4
228.17 K, Crystal	457.43 ± 4.1
229.91 K, Crystal	461.64 ± 4.1
231.66 K, Crystal	464.26 ± 4.1
233.45 K, Crystal	468.99 ± 4.1
235.26 K, Crystal	472.26 ± 4.2
237.06 K, Crystal	475.98 ± 4.2
238.86 K, Crystal	479.33 ± 4.2
240.62 K, Crystal	485.92 ± 4.3
242.33 K, Crystal	489.49 ± 4.3
244.03 K, Crystal	494.38 ± 4.4
245.76 K, Crystal	499.28 ± 4.4
248.1 K, Crystal	502 ± 4.4
250.99 K, Crystal	505.26 ± 4.4
253.79 K, Crystal	509.97 ± 4.5
256.52 K, Crystal	514.43 ± 4.5
259.21 K, Crystal	517.59 ± 4.5
261.87 K, Crystal	521.36 ± 4.6
264.51 K, Crystal	524.15 ± 4.6
267.13 K, Crystal	529.61 ± 4.6
269.73 K, Crystal	533.73 ± 4.7
272.3 K, Crystal	537.73 ± 4.7
274.79 K, Crystal	541.43 ± 4.7
277.25 K, Crystal	545.05 ± 4.8
279.67 K, Crystal	549.95 ± 4.8
282.04 K, Crystal	553.99 ± 4.8
284.36 K, Crystal	557.02 ± 4.9
286.64 K, Crystal	560.07 ± 4.9
288.9 K, Crystal	564.82 ± 4.9
291.1 K, Crystal	568.54 ± 4.9
293.23 K, Crystal	573.27 ± 5
295.4 K, Crystal	577.71 ± 5
297.6 K, Crystal	582.62 ± 5.1
299.78 K, Crystal	586.55 ± 5.1
301.95 K, Crystal	590.35 ± 5.1
304.05 K, Crystal	595.77 ± 5.2
306.13 K, Crystal	598.65 ± 5.2
308.2 K, Crystal	604.09 ± 5.2
323.46 K, Liquid	830.56 ± 7
325.28 K, Liquid	836.77 ± 7.1
327.09 K, Liquid	842.17 ± 7.1
328.88 K, Liquid	847.91 ± 7.2
330.65 K, Liquid	851.32 ± 7.2
332.41 K, Liquid	855.64 ± 7.2
334.15 K, Liquid	860.22 ± 7.3
335.87 K, Liquid	866.7 ± 7.3
337.57 K, Liquid	869.28 ± 7.4
339.26 K, Liquid	872.85 ± 7.4
